Counter-ions that a name gives are not always drawn.
Tested on: phenylquinone-induced writhing reaction
Assay: Phenylquinone-induced writhing test on mice
Type: in vivo
Conditions: Mus musculus, male NMRI mice; for ED50: oral administration 30 min before phenylquinone i.p., dose with 50% inhibition of writhing reaction; for inhibition at 25 mg/kg: 25 mg/kg per os, 30 min before phenylquinone i.p.
Description: The analgesic effectiveness of the compounds according to the invention was investigated in the phenylquinone-induced writhing test, modified according to I. C. Hendershot, J. Forsaith in J. Pharmacol. Exptl. Ther. 125, 237 (1959), on mice. Male NMRI mice with a weight between 25 and 30 g were used for this purpose. For each dose of substance, each 10 animals received, 30 minutes after the oral administration of a compound according to the invention, 0.3 ml per mouse of an 0.02% aqueous phenylquinone solution (phenylbenzoquinone manufactured by Sigma, Deisenhofen; solution prepared with the addition of 5% ethanol and kept on a water bath at 45° C.) administered intraperitoneally. Thereafter the animals were placed individually in observation cages. The number of pain-induced stretching movements (writhing reaction-straightening of the body with stretching of the rear extremities) was counted with the aid of a push-button counter. The Ed50 value (effective dose with 50% inhibition of writhing reaction) was calculated with a 95% confidence limit by means of regression analysis (evaluation program supplied by Martens EDV-Service, Eckental) from the dose-dependent decrease in the writhing reaction, by comparison with mice tested in parallel to which only phenylquinone had been administered.

| Compound | ED50 [mg/kg] | inhibition at 25 mg/kg [%] |
| --- | --- | --- |
| CC[C@](O)(c1cccc(C(F)(F)F)c1)[C@H](C)CN(C)C.Cl (racemic) [(5), (2RS,3RS)-1-dimethylamino-2-methyl-3-(3-trifluoromethylphenyl)-pentan-3-ol Hydrochloride] | 8.3 |  |
| CC[C@](O)(c1cccc(O)c1)[C@H](C)CN(C)C [(+16), (+) (2S,3S 1R,2R)-3-(dimethylamino-1-ethyl-1-hydroxy-2-methylpropyl)-phenol Hydrochloride] | 1 |  |
| CC[C@](O)(c1cccc(OC)c1)[C@H](C)CN(C)C.Cl (racemic) [(1), (2RS,3RS)-1-dimethylamino-3-(3-methoxyphenyl)-2-methylpentan-3-ol Hydrochloride] | 5.8 |  |
| CC[C@](O)(c1cccc(Cl)c1)[C@H](C)CN(C)C.Cl (racemic) [(4), (2RS,3RS)-3-(3-chlorophenyl)-1-dimethylamino-2-methylpentan-3-ol Hydrochloride] | 15.5 |  |
| CC[C@](O)(c1ccc2ccoc2c1)[C@H](C)CN(C)C.Cl (racemic) [(10), (2RS,3RS)-3-benzofuran-6-yl-1-dimethylamino-2-methylpentan-3-ol Hydrochloride] | 12.9 |  |
| CC[C@](O)(c1cccc(OC(C)C)c1)[C@H](C)CN(C)C (racemic) [(3), (2RS,3RS)-3-(3-isopropoxyphenyl)-1-dimethylamino-2-methylpentan-3-ol Hydrochloride] |  | 81.3 |
| CC[C@](O)(c1cccc(F)c1)[C@H](C)CN(C)C.Cl (racemic) [(7), (2RS, 3RS)-1-dimethylamino-3-(3-fluorophenyl)-2-methylpentan-3-ol Hydrochloride] | 27.3 |  |
| CC[C@](O)(c1cccc(OC)c1)[C@H](C)CN(C)C [(+1), (+)-(2R,3R)-1-dimethylamino-3-(3-methoxyphenyl)-2-methylpentan-3-ol Hydrochloride] | 1.1 |  |
| CCCC(O)(CCN(C)C)c1cccc(OC)c1.Cl (racemic) [(12), (3RS)-1-dimethylamino-3-(3-methoxyphenyl)-hexan-3-ol Hydrochloride] | 19.9 |  |
| CC[C@](O)(c1ccc(Cl)c(Cl)c1)[C@H](C)CN(C)C.Cl (racemic) [(2), (2RS,3RS)-3-(3,4-dichlorophenyl)-1-dimethylamino-2-methylpentan-3-ol Hydrochloride] | 13.2 |  |
| CC[C@](O)(c1cccc(O)c1)[C@H](C)CN(C)C (racemic) [(16), (2RS,3RS)-3-(3-dimethylamino-1-ethyl-1-hydroxy-2-methylpropyl)-phenol Hydrochloride] |  | 100 |
| C[C@H](CN(C)C)[C@@](C)(O)c1cccc(O)c1 [(+17), (+)-(1R,2R)-3-(3-dimethylamino-1-hydroxy-1,2-dimethylpropyl)-phenolhydrochloride] |  | 97.2 |
| CC[C@H](c1cccc(O)c1)[C@H](C)CN(C)C.Cl [(+21), (+)-(1S,2R 2S)-3-(3-dimethylamino-1-ethyl-2-methylpropyl)-phenol hydrochloride] | 1.9 |  |
| CC[C@](O)(c1cccc(C(F)F)c1)[C@H](C)CN(C)C.Cl (racemic) [(8), (2RS,3RS)-3-(3-difluoromethylphenyl)-1-dimethylamino-2-methylpentan-3-ol Hydrochloride] | 12.9 |  |
| CC[C@](O)(c1cccc(C)c1)[C@H](C)CN(C)C.Cl (racemic) [(6), (2RS,3RS)-1-dimethylamino-2-methyl-3-(3-m-tolyl)-pentan-3-ol Hydrochloride] | 11.8 |  |
| CC[C@@](O)(c1cccc(O)c1)[C@@H](C)CN(C)C [(−16), (-) (2S,3S) 1S,2S)-3-(dimethylamino-1-ethyl-1-hydroxy-2-methylpropyl)-phenol Hydrochloride] | 16.1 |  |
| COc1cccc(C(O)(CCN(C)C)C(C)(C)C)c1.Cl (racemic) [(14), (3RS)-1-dimethylamino-3-(3-methoxyphenyl)-4,4-dimethylpentan-3-ol Hydrochloride] | 10.5 |  |
| CC[C@](F)(c1cccc(O)c1)[C@H](C)CN(C)C.Cl [(+18), (+)-(1R,2R)-3-(3-dimethylamino-1-ethyl-1-fluoro-2-methylpropyl)-phenol Hydrochloride] | 15.7 |  |
| CC[C@](O)(c1cccc(SC)c1)[C@H](C)CN(C)C.Cl (racemic) [(9), (2RS,3RS)-1-dimethylamino-2-methyl-3-(3-methylsulphanylphenyl)-pentan-3-ol Hydrochloride] | 12.8 |  |
| C[C@@H](CN(C)C)[C@](C)(O)c1cccc(O)c1 [(−17), (−)-(1S,2S)-3-(3-dimethylamino-1-hydroxy-1,2-dimethylpropyl)-phenol Hydrochloride] |  | 58.3 |
| COc1cccc([C@](C)(O)[C@H](C)CN(C)C)c1 [(+15), Hydrochloride] |  | 95.2 |
| COc1cccc([C@](C)(O)[C@H](C)CN(C)C)c1 (racemic) [(15), Hydrochloride] | 3.8 |  |
| CC[C@@](O)(c1cccc(OC)c1)[C@@H](C)CN(C)C [(−1), (−)-(2S,3S)-1-dimethylamino-3-(3-methoxyphenyl)-2-methylpentan-3-ol Hydrochloride] | 22.3 |  |

Reference: patent publication USRE39593E1 (Gruenenthal GmbH, priority 1994, dated 2007)
